Measurements as given in patent US20260062443A1 (ALEXION PHARMACEUTICALS, INC., priority 2022, published 2026).

Target: T1, Human complement C1s enzyme (Homo sapiens, UniProt P09871)
T1 sequence (P09871 438-688 limits assumed): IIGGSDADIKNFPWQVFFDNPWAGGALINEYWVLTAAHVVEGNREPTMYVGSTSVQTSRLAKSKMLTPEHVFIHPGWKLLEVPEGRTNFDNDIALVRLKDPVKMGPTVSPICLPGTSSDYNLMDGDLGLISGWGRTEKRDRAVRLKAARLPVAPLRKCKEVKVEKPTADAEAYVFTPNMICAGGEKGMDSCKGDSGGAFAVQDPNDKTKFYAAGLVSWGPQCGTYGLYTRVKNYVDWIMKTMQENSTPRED
T1 sequence (P09871 16-437 partner limits assumed): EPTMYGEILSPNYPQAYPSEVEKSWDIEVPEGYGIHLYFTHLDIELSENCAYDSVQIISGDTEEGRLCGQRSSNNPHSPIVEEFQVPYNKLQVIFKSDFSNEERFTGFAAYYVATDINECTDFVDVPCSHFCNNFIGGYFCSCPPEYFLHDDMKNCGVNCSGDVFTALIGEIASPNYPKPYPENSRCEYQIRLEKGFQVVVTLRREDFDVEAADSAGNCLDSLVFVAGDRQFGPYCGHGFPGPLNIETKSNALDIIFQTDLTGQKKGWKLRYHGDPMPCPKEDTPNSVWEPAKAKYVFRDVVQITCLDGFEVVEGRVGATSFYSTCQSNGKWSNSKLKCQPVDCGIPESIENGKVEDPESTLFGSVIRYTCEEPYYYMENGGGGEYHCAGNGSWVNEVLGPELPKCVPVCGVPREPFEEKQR
Assay: Human C1s enzyme assay
Type: biochemical
Settings: human complement C1s enzyme 1.16 nM, substrate Z-L-Lys-SBzl 100 μM, 5 min preincubation; read-out: IC50 (Stars), C1s Inhibiting Activity
How it was run: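 IC50 from nonlinear regression of reaction rates versus compound concentration, with rates taken from A405 recorded at 30 s intervals over 30 min after adding 100 μM Z-L-Lys-SBzl plus 100 μM DTNB. Enzyme was human C1s purified from serum, 1.16 nM, given 5 min compound preincubation at room temperature, pH 7.5 Tris/1 M NaCl.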

SMILES | IC50 [nM]
O=C(NCC(=O)N1CC2(C[C@H]1C(=O)NCc1ncc[nH]1)OCCO2)c1ccc(Oc2ccccc2)cc1 [Compound 15, (S)-N-((1H-imidazol-2-yl)methyl)-7-((4-phenoxybenzoyl)glycyl)-1,4-dioxa-7-azaspiro[4.4]nonane-8-carboxamide] | > 1000
COC[C@@]1(F)C[C@@H](C(=O)N[C@H](C)c2cc3cnccc3[nH]2)N(C(=O)CNC(=O)c2ccc3c(c2)-c2ccccc2C3(F)F)C1 [Compound 73, (2S,4R)-N-((R)-1-(1H-pyrrolo[3,2-c]pyridin-2-yl)ethyl)-1-((9,9-difluoro-9H-fluorene-3-carbonyl)glycyl)-4-fluoro-4-(methoxymethyl)pyrrolidine-2-carboxamide] | < 100
C[C@@H](NC(=O)[C@@H]1C[C@@H](OC(F)F)CN1C(=O)CNC(=O)c1ccc2oc3ccccc3c2c1)c1cc2cnccc2[nH]1 [Compound 220, (2S,4R)-N-((R)-1-(1H-pyrrolo[3,2-c]pyridin-2-yl)ethyl)-1-((dibenzo[b,d]furan-2-carbonyl)glycyl)-4-(difluoromethoxy)pyrrolidine-2-carboxamide] | < 100
O=C(NCC(=O)N1C[C@H](OC(F)F)C[C@H]1C(=O)NCc1ccc2c(c1)NCC2)c1ccc2c(c1)Oc1ccccc1S2 [Compound 198, (2S,4R)-4-(difluoromethoxy)-N-(indolin-6-ylmethyl)-1-((phenoxathiine-3-carbonyl)glycyl)pyrrolidine-2-carboxamide] | > 1000
C[C@@H](NC(=O)[C@@H]1C[C@@H](OC(F)F)CN1C(=O)CN1Cc2cc(-c3ccc(F)cc3F)ccc2C1=O)c1cc2cnccc2[nH]1 [Compound 91, (2S,4R)-N-((R)-1-(1H-pyrrolo[3,2-c]pyridin-2-yl)ethyl)-4-(difluoromethoxy)-1-(2-(5-(2,4-difluorophenyl)-1-oxoisoindolin-2-yl)acetyl)pyrrolidine-2-carboxamide] | < 100
O=C(NCC(=O)N1C[C@H](OC(F)F)C[C@H]1C(=O)NCc1ccc2nncn2c1)c1ccc2c(c1)Oc1ccccc1S2 [Compound 225, (2S,4R)-N-([1,2,4]triazolo[4,3-a]pyridin-6-ylmethyl)-4-(difluoromethoxy)-1-((phenoxathiine-3-carbonyl)glycyl)pyrrolidine-2-carboxamide] | > 1000
C[C@@]12C[C@@H]1N(C(=O)CNC(=O)c1ccc3c(c1)Oc1ccccc1S3)[C@H](C(=O)NCc1ccc3c(c1)COB3O)C2 [Compound 279, (1S,3S,5S)-N-((1-hydroxy-1,3-dihydrobenzo[c][1,2]oxaborol-5-yl)methyl)-5-methyl-2-((phenoxathiine-3-carbonyl)glycyl)-2-azabicyclo[3.1.0]hexane-3-carboxamide] | > 1000
COC[C@@]1(F)C[C@@H](C(=O)NCc2cc3cnccc3[nH]2)N(C(=O)CNC(=O)c2ccc3c(c2)-c2ccccc2C3(F)F)C1 [Compound 5, (2S,4R)-N-((1H-pyrrolo[3,2-c]pyridin-2-yl)methyl)-1-((9,9-difluoro-9H-fluorene-3-carbonyl)glycyl)-4-fluoro-4-(methoxymethyl)pyrrolidine-2-carboxamide] | < 100
C[C@@H](NC(=O)[C@@H]1C[C@@H](OC(F)F)CN1C(=O)CNC(=O)c1ccc(Oc2ccccc2)cc1)c1cc2cnccc2s1 [Compound 209, (2S,4R)-4-(difluoromethoxy)-1-((4-phenoxybenzoyl)glycyl)-N-((R)-1-(thieno[3,2-c]pyridin-2-yl)ethyl)pyrrolidine-2-carboxamide] | 100 to 1000
C[C@@]12C[C@@H]1N(C(=O)CNC(=O)c1ccc3c(c1)Oc1ccccc1S3)[C@H](C(=O)NCc1cccc(B(O)O)c1)C2 [Compound 250, (3-(((1S,3S,5S)-5-methyl-2-((phenoxathiine-3-carbonyl)glycyl)-2-azabicyclo[3.1.0]hexane-3-carboxamido)methyl)phenyl) boronic acid] | > 1000
O=C(NCC(=O)N1C[C@H](OC(F)F)C[C@H]1C(=O)NCc1cc2cnccc2[nH]1)c1ccc2c(c1)-c1ccccc1C2(F)F [Compound 8, (2S,4R)-N-((1H-pyrrolo[3,2-c]pyridin-2-yl)methyl)-1-((9,9-difluoro-9H-fluorene-3-carbonyl)glycyl)-4-(difluoromethoxy)pyrrolidine-2-carboxamide] | < 100
C[C@@H](NC(=O)[C@@H]1CC2(CN1C(=O)CNC(=O)c1ccc(-c3ccccc3)cc1)OCCO2)c1cc2cnccc2[nH]1 [Compound 79, (S)-N-((R)-1-(1H-pyrrolo[3,2-c]pyridin-2-yl)ethyl)-7-(([1,1′-biphenyl]-4-carbonyl)glycyl)-1,4-dioxa-7-azaspiro[4.4]nonane-8-carboxamide] | 100 to 1000
O=C(NCC(=O)N1CC[C@@H](O)[C@H]1C(=O)NCc1cc2cnccc2[nH]1)c1ccc2c(c1)Oc1ccccc1S2 [Compound 158, (2S,3R)-N-((1H-pyrrolo[3,2-c]pyridin-2-yl)methyl)-3-hydroxy-1-((phenoxathiine-3-carbonyl)glycyl)pyrrolidine-2-carboxamide] | < 100
C[C@@]12C[C@@H]1N(C(=O)CNC(=O)CCCOc1ccccc1)[C@H](C(=O)N[C@@H]1CCn3c(CN)ccc31)C2 [Compound 78, (1S,3S,5S)-N-((R)-5-(aminomethyl)-2,3-dihydro-1H-pyrrolizin-1-yl)-5-methyl-2-((4-phenoxybutanoyl)glycyl)-2-azabicyclo[3.1.0]hexane-3-carboxamide] | 100 to 1000
Cc1ccc(Oc2cccc(C(=O)NCC(=O)N3C[C@H](OC(F)F)C[C@H]3C(=O)NCc3cc4c(s3)CCNC4)c2)c(F)c1 [Compound 338, (2S,4R)-4-(difluoromethoxy)-1-((3-(2-fluoro-4-methylphenoxy)benzoyl)glycyl)-N-((4,5,6,7-tetrahydrothieno[3,2-c]pyridin-2-yl)methyl) pyrrolidine-2-carboxamide] | < 100
C[C@@]12C[C@@H]1N(C(=O)CNC(=O)c1ccc3c(c1)Oc1ccccc1S3)[C@H](C(=O)NCc1cc3cnccc3[nH]1)C2 [Compound 44, (1S,3S,5S)-N-((1H-pyrrolo[3,2-c]pyridin-2-yl)methyl)-5-methyl-2-((phenoxathiine-3-carbonyl)glycyl)-2-azabicyclo[3.1.0]hexane-3-carboxamide] | < 100
C[C@@H](NC(=O)[C@@H]1C[C@@H](S(=O)(=O)C2CC2)CN1C(=O)CNC(=O)c1ccc2c(c1)Oc1ccccc1S2)c1cc2cnccc2[nH]1 [Compound 174, (2S,4R)-N-((R)-1-(1H-pyrrolo[3,2-c]pyridin-2-yl)ethyl)-4-(cyclopropylsulfonyl)-1-((phenoxathiine-3-carbonyl)glycyl)pyrrolidine-2-carboxamide] | < 100
O=C(NCC(=O)N1CC2(C[C@H]1C(=O)NCc1cc3cnncc3[nH]1)OCCO2)c1ccc2c(c1)Oc1ccccc1S2 [Compound 37, (S)-N-((1H-pyrrolo[2,3-d]pyridazin-2-yl)methyl)-7-((phenoxathiine-3-carbonyl)glycyl)-1,4-dioxa-7-azaspiro[4.4]nonane-8-carboxamide] | < 100
O=C(NCc1cc2cnccc2[nH]1)[C@@H]1CC2(CN1C(=O)CN1Cc3ccc(-c4ccc(F)cc4F)cc3C1=O)OCCO2 [Compound 125, (S)-N-((1H-pyrrolo[3,2-c]pyridin-2-yl)methyl)-7-(2-(6-(2,4-difluorophenyl)-1-oxoisoindolin-2-yl)acetyl)-1,4-dioxa-7-azaspiro[4.4]nonane-8-carboxamide] | < 100
C[C@@]12C[C@@H]1N(C(=O)CNC(=O)c1cccc(Oc3ccc(F)cc3)c1)[C@H](C(=O)NCc1cc3cnccc3s1)C2 [Compound 252, (1S,3S,5S)-2-((3-(4-fluorophenoxy)benzoyl)glycyl)-5-methyl-N-(thieno[3,2-c]pyridin-2-ylmethyl)-2-azabicyclo[3.1.0]hexane-3-carboxamide] | < 100
C[C@@H](NC(=O)[C@@H]1C[C@](F)(CF)CN1C(=O)CNC(=O)c1ccc2c(c1)-c1ccccc1C2(F)F)c1cc2cnccc2[nH]1 [Compound 86, (2S,4R)-N-((R)-1-(1H-pyrrolo[3,2-c]pyridin-2-yl)ethyl)-1-((9,9-difluoro-9H-fluorene-3-carbonyl)glycyl)-4-fluoro-4-(fluoromethyl)pyrrolidine-2-carboxamide] | 100 to 1000
O=C(NCC(=O)N1C[C@H](OC(F)F)C[C@H]1C(=O)NCc1cc2cnccc2[nH]1)c1ccc(Oc2ccccc2)cn1 [Compound 137, N-(2-((2S,4R)-2-(((1H-pyrrolo[3,2-c]pyridin-2-yl)methyl)carbamoyl)-4-(difluoromethoxy)pyrrolidin-1-yl)-2-oxoethyl)-5-phenoxypicolinamide] | < 100
O=C(NCC(=O)N1C[C@H](OC(F)F)C[C@H]1C(=O)NCc1ccc2cc[nH]c2n1)c1ccc2c(c1)Oc1ccccc1S2 [Compound 229, (2S,4R)-N-((1H-pyrrolo[2,3-b]pyridin-6-yl)methyl)-4-(difluoromethoxy)-1-((phenoxathiine-3-carbonyl)glycyl)pyrrolidine-2-carboxamide] | > 1000
